US20160122342A1, “ENHANCER OF ZESTE HOMOLOG 2 INHIBITORS” (GLAXOSMITHKLINE INTELLECTUAL PROPERTY (NO.2) LIMITED, priority 2013, published 2016)
Where a name gives a salt, the structure may show the parent alone.

How the values were obtained:
[1] = target: T1, EZH2 within the PRC2 complex (Homo sapiens, UniProt Q15910); assay: Assay Protocol 1: EZH2 methyltransferase scintillation proximity assay, mononucleosome substrate; type: biochemical; details: Assay Protocol 1; SPA, 3H-SAM, Histone H3 of mononucleosome purified from HeLa cells; 5-member PRC2 complex; read-out: EZH2 IC50
T1 construct: FLAG; made in house; host or cells: Sf9 cells
T1 sequence (Q15910 whole entry): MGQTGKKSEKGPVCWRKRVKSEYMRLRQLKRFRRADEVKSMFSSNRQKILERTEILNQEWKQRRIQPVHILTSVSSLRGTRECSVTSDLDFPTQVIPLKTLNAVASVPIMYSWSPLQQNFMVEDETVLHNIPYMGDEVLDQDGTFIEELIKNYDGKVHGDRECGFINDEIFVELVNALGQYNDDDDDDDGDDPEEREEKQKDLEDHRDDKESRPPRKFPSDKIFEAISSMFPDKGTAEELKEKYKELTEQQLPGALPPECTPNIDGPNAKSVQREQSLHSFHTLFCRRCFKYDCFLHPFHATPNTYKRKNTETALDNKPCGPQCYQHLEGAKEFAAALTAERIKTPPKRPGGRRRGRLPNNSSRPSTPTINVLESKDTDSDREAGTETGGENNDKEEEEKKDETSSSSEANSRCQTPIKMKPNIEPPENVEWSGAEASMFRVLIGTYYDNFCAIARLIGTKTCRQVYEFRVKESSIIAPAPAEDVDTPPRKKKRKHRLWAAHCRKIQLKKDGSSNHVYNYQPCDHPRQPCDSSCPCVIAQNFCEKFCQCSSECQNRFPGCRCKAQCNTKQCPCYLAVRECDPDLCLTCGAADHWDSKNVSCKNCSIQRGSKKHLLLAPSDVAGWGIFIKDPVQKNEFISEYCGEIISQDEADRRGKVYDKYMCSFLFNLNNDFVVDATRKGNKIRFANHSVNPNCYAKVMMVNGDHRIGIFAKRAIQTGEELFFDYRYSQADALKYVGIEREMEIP
T1 sequence (O75530 whole entry partner): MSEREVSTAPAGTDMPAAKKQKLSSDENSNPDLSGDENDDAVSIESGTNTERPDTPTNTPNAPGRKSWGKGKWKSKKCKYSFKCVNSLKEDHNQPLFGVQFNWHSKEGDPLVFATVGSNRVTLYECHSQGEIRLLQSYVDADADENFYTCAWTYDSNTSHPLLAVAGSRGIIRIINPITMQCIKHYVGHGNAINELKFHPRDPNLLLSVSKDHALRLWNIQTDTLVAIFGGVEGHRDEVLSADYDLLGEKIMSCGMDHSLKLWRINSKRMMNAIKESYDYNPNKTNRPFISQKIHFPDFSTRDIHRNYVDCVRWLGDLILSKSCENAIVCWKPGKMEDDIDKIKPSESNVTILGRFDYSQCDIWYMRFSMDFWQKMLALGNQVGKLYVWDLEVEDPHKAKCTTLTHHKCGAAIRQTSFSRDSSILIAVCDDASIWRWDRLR
T1 sequence (Q15022 whole entry partner): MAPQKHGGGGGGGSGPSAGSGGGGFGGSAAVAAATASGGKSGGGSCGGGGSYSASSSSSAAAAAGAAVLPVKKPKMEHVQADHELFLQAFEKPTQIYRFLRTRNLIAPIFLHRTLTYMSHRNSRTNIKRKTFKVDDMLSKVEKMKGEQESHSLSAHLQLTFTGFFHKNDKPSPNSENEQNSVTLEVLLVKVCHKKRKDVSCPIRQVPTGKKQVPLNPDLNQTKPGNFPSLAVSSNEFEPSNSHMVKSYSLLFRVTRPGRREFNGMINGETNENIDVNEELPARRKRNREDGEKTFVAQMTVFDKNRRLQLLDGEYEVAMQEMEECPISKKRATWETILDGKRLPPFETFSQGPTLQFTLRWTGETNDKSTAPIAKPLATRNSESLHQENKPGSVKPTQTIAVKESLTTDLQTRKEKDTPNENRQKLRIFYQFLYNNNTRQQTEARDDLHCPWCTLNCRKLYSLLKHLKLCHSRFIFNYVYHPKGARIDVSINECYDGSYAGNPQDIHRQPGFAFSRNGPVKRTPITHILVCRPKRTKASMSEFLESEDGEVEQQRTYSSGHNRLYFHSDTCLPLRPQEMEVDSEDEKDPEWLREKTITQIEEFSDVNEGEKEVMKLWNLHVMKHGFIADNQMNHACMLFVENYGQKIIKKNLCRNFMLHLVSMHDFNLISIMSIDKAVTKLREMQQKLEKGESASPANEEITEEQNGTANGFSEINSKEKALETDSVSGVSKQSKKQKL
T1 sequence (Q09028 whole entry partner): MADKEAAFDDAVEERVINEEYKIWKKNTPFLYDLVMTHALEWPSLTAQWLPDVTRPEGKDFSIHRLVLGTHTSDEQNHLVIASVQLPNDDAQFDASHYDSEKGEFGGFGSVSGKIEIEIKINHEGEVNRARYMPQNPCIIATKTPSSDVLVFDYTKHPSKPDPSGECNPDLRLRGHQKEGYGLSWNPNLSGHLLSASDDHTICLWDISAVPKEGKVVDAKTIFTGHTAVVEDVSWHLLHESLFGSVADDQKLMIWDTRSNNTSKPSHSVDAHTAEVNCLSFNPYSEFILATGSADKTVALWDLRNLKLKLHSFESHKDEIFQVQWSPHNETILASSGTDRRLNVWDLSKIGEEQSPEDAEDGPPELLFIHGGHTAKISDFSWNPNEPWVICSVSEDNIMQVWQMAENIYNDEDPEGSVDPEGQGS
T1 sequence (Q6ZN18 whole entry partner): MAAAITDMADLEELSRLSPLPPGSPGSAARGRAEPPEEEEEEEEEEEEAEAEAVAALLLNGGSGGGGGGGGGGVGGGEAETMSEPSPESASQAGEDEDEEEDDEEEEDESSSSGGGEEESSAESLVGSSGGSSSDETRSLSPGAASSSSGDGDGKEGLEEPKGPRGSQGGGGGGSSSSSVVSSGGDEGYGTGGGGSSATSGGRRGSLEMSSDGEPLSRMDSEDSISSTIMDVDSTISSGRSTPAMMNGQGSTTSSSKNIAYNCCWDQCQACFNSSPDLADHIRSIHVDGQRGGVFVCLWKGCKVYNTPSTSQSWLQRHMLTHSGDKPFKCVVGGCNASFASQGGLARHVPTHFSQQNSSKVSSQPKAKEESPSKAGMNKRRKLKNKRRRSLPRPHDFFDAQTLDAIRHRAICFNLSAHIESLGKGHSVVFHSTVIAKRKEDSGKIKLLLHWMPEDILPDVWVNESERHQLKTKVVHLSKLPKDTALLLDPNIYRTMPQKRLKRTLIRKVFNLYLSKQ
Experimental: Compounds contained herein were evaluated for their ability to inhibit the methyltransferase activity of EZH2 within the PRC2 complex. […] Mononucleosomes were captured on SPA beads and the resulting signal is read on a ViewLux plate reader. • 1. Prepare 10 mM stock of compounds from solid in 100% DMSO. • 2. […] Dispense 100 nL of compound from the dilution plate into reaction plates (Grenier Bio-One, 384-well, Cat#784075). Prepare the following solutions: • 1. 50 mM Tris-HCl, pH 8: Per 1 L of base buffer, combine 1 M Tris-HCl, pH 8 (50 mL) and distilled water (950 mL). • 2. 1× Assay Buffer: […] SPA Bead Suspension: […] Per 10 mL of 2× Substrate Solution, combine 1× Assay Buffer (9728.55 uL), 800 ug/mL mononucleosomes (125 uL), 1 mM cold SAM (4 uL), and 7.02 uM 3H-SAM (142.45 uL; 0.55 mCi/mL) to provide a final concentration of 5 ug/mL nucleosomes, 0.2 uM cold SAM, and 0.05 uM 3H-SAM. • 6. 2.67× Quench/Bead Mixture: Per 10 mL of 2.67× Quench/Bead Mixture, combine ddH2O (9358 uL), 10 mM cold SAM (267 uL), 40 mg/mL Bead Suspension (375 uL) to provide a final concentration of 100 uM cold SAM and 0.5 mg/mL SPA beads. • 1. Dispense 100 nL/well of 100× Compound to test wells (as noted above). • 2. […] • 1. Dispense 5 uL/well of 1× Assay Buffer to column 18 (low control reactions). • 2. Dispense 5 uL/well of 2× Enzyme Solution to columns 1-17, 19-24. • 3. Spin assay plates for ˜1 minute at 500 rpm. • 4. Stack the assay plates, covering the top plate. • 5. Incubate the compound/DMSO with the enzyme for 30 minutes at room temperature. • 6. Dispense 5 uL/well of 2× Substrate Solution to columns 1-24. • 7. Spin assay plates for ˜1 minute at 500 rpm. • 8. Stack the assay plates, covering the top plate. • 9. Incubate the assay plates at room temperature for 1 hour. • 1. Dispense 5 uL/well of the 3× Quench/Bead Mixture to columns 1-24. • 2. Seal the top of each assay plate with adhesive TopSeal. • 3. Spin assay plates for ˜1 minute at 500 rpm. • 4. […] • 1. Read the assay plates on the Viewlux Plate Reader utilizing the 613 nm emission filter with a 300 s read time. Reagent addition can be done manually or with automated liquid handler. The final DMSO concentration in this assay is 1%. The positive control is in column 6; negative control is in column 18. Final starting concentration of compounds is 100 μM. Percent inhibition was calculated relative to the DMSO control for each compound concentration and the resulting values were fit using standard IC50 fitting parameters within the ABASE data fitting software package.

[2] = target: T1, EZH2 within the PRC2 complex; assay: Assay Protocol 2: EZH2 methyltransferase scintillation proximity assay, biotinylated histone H3 peptide substrate; type: biochemical; details: SPA, 3H-SAM, biotinylated unmethylated histone H3K27 peptide substrate, 5-member PRC2 complex
Experimental: Compounds contained herein were evaluated for their ability to inhibit the methyltransferase activity of EZH2 within the PRC2 complex. […] The peptides were captured on streptavidin-coated SPA beads and the resulting signal was read on a ViewLux plate reader. • 4. Prepare 10 mM stock of compounds from solid in 100% DMSO. • 5. […] Dispense 10 nL of compound from the dilution plate into reaction plates (Corning, 384-well polystyrene NBS, Cat#3673). Prepare the following solutions: • 7. 1× Base Buffer, 50 mM Tris-HCl, pH 8, 2 mM MgCl2: Per 1 L of base buffer, combine 1 M Tris-HCl, pH 8 (50 mL), 1 M MgCl2 (2 mL), and distilled water (948 mL). • 8. 1× Assay Buffer: Per 10 mL of 1× Assay Buffer, combine 1× Base Buffer (9.96 mL), 1 M DTT (40 uL), and 10% Tween-20 (1 uL) to provide a final concentration of 50 mM Tris-HCl, pH 8, 2 mM MgCl2, 4 mM DTT, 0.001% Tween-20. • 9. 2× Enzyme Solution: […] SPA Bead Solution: Per 1 mL of SPA Bead Solution, combine Streptavidin coated SPA beads (PerkinElmer, Cat# RPNQ0261, 40 mg) and 1× Assay Buffer (1 mL) to provide a working concentration of 40 mg/mL. • 11. 2× Substrate Solution: Per 10 mL of 2× Substrate Solution, combine 40 mg/mL SPA Bead Solution (375 uL), 1 mM biotinylated histone H3K27 peptide (200 uL), 12.5 uM 3H-SAM (240 uL; 1 mCi/mL), 1 mM cold SAM (57 uL), and 1× Assay Buffer (9.13 mL) to provide a final concentration of 0.75 mg/mL SPA Bead Solution, 10 uM biotinylated histone H3K27 peptide, 0.15 uM 3H-SAM (˜12 uCi/mL 3H-SAM), and 2.85 uM cold SAM. • 12. 2.67× Quench Solution: Per 10 mL of 2.67× Quench Solution, combine 1× Assay Buffer (9.73 mL) and 10 mM cold SAM (267 uL) to provide a final concentration of 100 uM cold SAM. • 3. […] Dispense 5 uL/well of 1× Assay Buffer to column 18 (low control reactions). • 11. Dispense 5 uL/well of 2× Substrate Solution to columns 1-24 (note: substrate solution should be mixed to ensure homogeneous bead suspension before dispensing into matrix reservoir). • 12. Dispense 5 uL/well of 2× Enzyme Solution to columns 1-17, 19-24. • 13. Incubate the reaction for 60 min at room temperature. • 5. Dispense 6 uL/well of the 2.67× Quench Solution to columns 1-24. • 6. Seal assay plates and spin for ˜1 min at 500 rpm. • 7. Dark adapt plates in the ViewLux instrument for 15-60 min. • 2. Read the assay plates on the Viewlux Plate Reader utilizing the 613 nm emission filter or clear filter (300 s exposure). Reagent addition can be done manually or with automated liquid handler. Percent inhibition was calculated relative to the DMSO control for each compound concentration and the resulting values were fit using standard IC50 fitting parameters within the ABASE data fitting software package.

| IC50 [1] | IC50 [2] | Structure (SMILES) |
| --- | --- | --- |
| 126 nM | 200 nM | CCN(c1cccc2c1CC=CCOCc1cc(C)[nH]c(=O)c1CNC2=O)C1CCOCC1 (racemic) [Example 12, (E)- and (Z)-11-(ethyl(tetrahydro-2H-pyran-4-yl)amino)-3-methyl-7,10,16,17-tetrahydrobenzo[h]pyrido[4,3-c][1,6]oxaazacyclotridecine-1,15(2H,5H)-dione] |
| 25 nM | 126 nM | Cc1cc2c(c(=O)[nH]1)CNC(=O)c1cc(Cl)cc(O[C@H]3CC[C@H](N(C)C)CC3)c1C/C=C/CC2 [Example 2, (E)-12-chloro-10-((trans-4-(dimethylamino)cyclohexyl)oxy)-3-methyl-5,6,15,16-tetrahydrobenzo[c]pyrido[4,3-j][1]azacyclododecine-1,14(2H,9H)-dione] |
| 100 nM | 158 nM | Cc1cc2c(c(=O)[nH]1)CNC(=O)c1cc(Cl)cc(O[C@H]3CC[C@H](N(C)C)CC3)c1CCCCC2 [Example 3, 12-chloro-10-((trans-4-(dimethylamino)cyclohexyl)oxy)-3-methyl-6,7,8,9,15,16-hexahydrobenzo[c]pyrido[4,3-j][1]azacyclododecine-1,14(2H,5H)-dione] |
| 100 nM | 158 nM | CCN(c1cccc2c1C/C=C/CCc1cc(C)[nH]c(=O)c1CNC2=O)C1CCOCC1 [Example 6, (E)-10-(ethyl(tetrahydro-2H-pyran-4-yl)amino)-3-methyl-5,6,15,16-tetrahydrobenzo[c]pyrido[4,3-j][1]azacyclododecine-1,14(2H,9H)-dione hydrochloride, 0.10 1,4-dioxane solvate] |
| 79 nM | 126 nM | CCN(c1cccc2c1C/C=C/CCc1cc(C)[nH]c(=O)c1CN(C)C2=O)C1CCOCC1 [Example 9, (E)-10-(ethyl(tetrahydro-2H-pyran-4-yl)amino)-3,15-dimethyl-5,6,15,16-tetrahydrobenzo[c]pyrido[4,3-j][1]azacyclododecine-1,14(2H,9H)-dione] |
| 50 nM | 158 nM | CCN(c1cccc2c1C/C=C/CCCCc1cc(C)[nH]c(=O)c1CNC2=O)C1CCOCC1 [Example 14, (E)-12-(ethyl(tetrahydro-2H-pyran-4-yl)amino)-3-methyl-5,6,7,8,17,18-hexahydrobenzo[c]pyrido[4,3-l][1]azacyclotetradecine-1,16(2H,11H)-dione hydrochloride] |
| 32 nM | 126 nM | CCN(c1cc(Cl)cc2c1C/C=C/CCc1cc(C)[nH]c(=O)c1CNC2=O)C1CCOCC1 [Example 17, (E)-12-chloro-10-(ethyl(tetrahydro-2H-pyran-4-yl)amino)-3-methyl-5,6,15,16-tetrahydrobenzo[c]pyrido[4,3-j][1]azacyclododecine-1,14(2H,9H)-dione] |
| 100 nM | 316 nM | Cc1cc2c(c(=O)[nH]1)CNC(=O)c1cc(Cl)cc(OC(C)C)c1C/C=C/CC2 [Example 18, (E)-12-chloro-10-isopropoxy-3-methyl-5,6,15,16-tetrahydrobenzo[c]pyrido[4,3-j][1]azacyclododecine-1,14(2H,9H)-dione] |
| 40 nM | 79 nM | CCN(c1cccc2c1C/C=C/CCCc1cc(C)[nH]c(=O)c1CNC2=O)C1CCOCC1 [Example 19, (E)-11-(ethyl(tetrahydro-2H-pyran-4-yl)amino)-3-methyl-5,6,7,10,16,17-hexahydro-1H-benzo[c]pyrido[4,3-k][1]azacyclotridecine-1,15(2H)-dione] |
| 25 nM | 1000 nM | CCN(c1cccc2c1CCCCCCc1cc(C)[nH]c(=O)c1CNC2=O)C1CCOCC1 [Example 20, 11-(ethyl(tetrahydro-2H-pyran-4-yl)amino)-3-methyl-5,6,7,8,9,10,16,17-octahydro-1H-benzo[c]pyrido[4,3-k][1]azacyclotridecine-1,15(2H)-dione] |
| 100 nM | 398 nM | CCN(c1cccc2c1C/C=C\CCCc1cc(C)[nH]c(=O)c1CNC2=O)C1CCOCC1 [Example 21, (Z)-11-(ethyl(tetrahydro-2H-pyran-4-yl)amino)-3-methyl-5,6,7,10,16,17-hexahydro-1H-benzo[c]pyrido[4,3-k][1]azacyclotridecine-1,15(2H)-dione] |
| 16 nM | 79 nM | CCN(c1cccc2c1C/C=C/CCc1cc(C)[nH]c(=O)c1CNC2=O)C1CCC(F)(F)CC1 [Example 30, (E)-10-((4,4-difluorocyclohexyl)(ethyl)amino)-3-methyl-5,6,15,16-tetrahydrobenzo[c]pyrido[4,3-j][1]azacyclododecine-1,14(2H,9H)-dione] |

| Structure (SMILES) | IC50 [1] | IC50 [2] |
| --- | --- | --- |
| Cc1cc2c(c(=O)[nH]1)CNC(=O)c1cc(Cl)cc(O[C@H]3CC[C@H](N)CC3)c1C/C=C/CC2 [Example 1, (E)-10-((trans-4-aminocyclohexyl)oxy)-12-chloro-3-methyl-5,6,15,16-tetrahydrobenzo[c]pyrido[4,3-j][1]azacyclododecine-1,14(2H,9H)-dione hydrochloride] | 32 nM | 100 nM |
| Cc1cc2c(c(=O)[nH]1)CNC(=O)c1cc(Cl)cc(O[C@H]3CC[C@H](N(C)C)CC3)c1C/C=C/CCC2 [Example 8, (E)-13-chloro-11-((trans-4-(dimethylamino)cyclohexyl)oxy)-3-methyl-5,6,7,10,16,17-hexahydro-1H-benzo[c]pyrido[4,3-k][1]azacyclotridecine-1,15(2H)-dione] | 63 nM | 251 nM |
| CCN(c1cccc2c1C/C=C/CCc1cc(C)[nH]c(=O)c1CNC2=O)C1CCNCC1 [Example 31, (E)-10-(ethyl(piperidin-4-yl)amino)-3-methyl-5,6,15,16-tetrahydrobenzo[c]pyrido[4,3-j][1]azacyclododecine-1,14(2H,9H)-dione] | 13 nM | 200 nM |
